Data set [1] has as its system mPTP. Put plainly: mPTP activity (Ca2+ retention) assay in isolated rat liver mitochondria. It counts as biochemical. To be noted: isolated rat liver mitochondria; average value from multiple experiments (n ≥ 2). From the text: Pharmacological inhibition or modulation of the mPTP can be measured in well characterised ‘Ca^2+ retention’ assays performed in isolated mitochondria. In vitro isolated mitochondria rapidly sequester exogenous Ca^2+ until the intramitochondrial Ca^2+ concentration reaches the threshold for mPTP activation. Once the pore is activated, mitochondrial integrity is compromised and the stored Ca^2+ is released. The distribution of Ca^2+ between extra- and intra-mitochondrial compartments can be measured in real time with the use of membrane-impermeant Ca^2+ sensitive fluorescent dyes. Depending on the configuration of the assay, inhibition or modulation of the mPTP either delays the opening of the pore or increases the concentration of Ca^2+ required to induce mPTP opening.
MPTP activity was measured in mitochondria freshly isolated from female Sprague Dawley (250 to 300 gram) rat livers using the following method. Cervical dislocation was performed on the rat. The liver was then perfused in-situ with ˜40 ml cold Dulbecco's Phosphate Buffered Saline (DPBS) prior to dissection and transferred into 30 ml Isolation Buffer (250 mM Sucrose, 10 mM KCl, 1 mM EGTA, 1 mM EDTA, 25 mM HEPES, adjusted to pH 7.5 with 1 M NaOH). Each lobe of the liver was then removed from the buffer, minced using tweezers and a scalpel into ˜5 mm pieces then transferred into a 50 ml Potterton dounce homogenization tube on ice containing 30 ml ice-cold centrifugation buffer (300 mM Trehalose, 25 mM HEPES, 1 mM EGTA, 1 mM EDTA, 10 mM KCl, adjusted to pH 7.5 with 1 M NaOH and supplemented with 0.1% bovine serum albumin (BSA) and complete protease inhibitor cocktail (one tablet of inhibitor per 50 mls of buffer). Homogenisation was carried out using a teflon pestle at 1800 rpm. The slurry was centrifuged at 800 g for 10 min at 4° C., then the supernatant centrifuged at 10,000 g for 10 min. The pellet was washed once with FLIPR assay buffer (75 mM Mannitol, 25 mM Sucrose, 5 mM Potassium Phosphate Monobasic, 20 mM Tris base, 100 mM KCl, 0.1% BSA adjusted to pH 7.4 with 5M HCl) centrifuged again, then resuspended in FLIPR assay buffer to a concentration of 8.8 mg/ml protein.
Tested compounds (10 mM stock in DMSO) were serially diluted in DMSO in half log steps to generate 10 test concentrations (final concentrations in assay 30 μM to 1 nM). An intermediate dilution of 5 μl DMSO samples into 247 μl FLIPR assay buffer was carried out prior to transfer of 5 μl into duplicate wells of a 384 well polypropylene assay plate. Control wells were 0.5% (v/v) DMSO and 5 μM cyclosporin A.
A stock mitochondria/Fluo5N assay solution was prepared in 5.6 ml FLIPR assay buffer (at RT) supplemented with succinate disodium salt (10 mM), rotenone (1 μM), Fluo5N pentapotassium salt (2 μM) and 1 ml mitochondria suspension, then transferred (15 μl) into the assay plate containing test compounds and incubated for 10 min at RT. Assay plates were then transferred to a FLIPR Tetra plate reader (Molecular Devices). Dye fluorescence was then measured every 3 sec for a total of 10 min. After 12 sec, a 2.5 μl bolus of CaCl2 (75 μM) was added from a source plate containing 675 μM CaCl2 in FLIPR assay buffer. IC50 values for tested compounds were calculated using the fluorescence value collected at the 10 min timepoint with % inhibition calculated using the DMSO control and cyclosporin A values as […] respectively.

Data set [2] addresses CYP2D6 (Homo sapiens (Human), UniProt P10635). Put plainly: Cytochrome P450 CYP2D6 inhibition in human liver microsomes. It counts as in vitro ADME. To be noted: probe dextromethorphan 2 µM (dextrorphan formation); 1 uM test compound, human liver microsomes; average value from two experiments; negative values = no effective inhibition. As for the experimental part:
Studies to assess tested compound mediated inhibition of cytochrome P450 enzyme isoform CYP2D6 were performed using human liver microsomes (BD Gentest) using either a single concentration (1 μM) of test compound or concentration response (0.1, 0.3, 1, 3, 10 and 30 μM) to derive an IC50. Tested compound solutions were prepared from 10 mM stocks in DMSO and diluted to 200 μM in DMSO. Reactions were prepared in a 96 deep well plate by combining 1 μl test compound with 179 μl reaction mixture (100 mM phosphate buffered saline (PBS), 0.2 mg/mL microsomes and 2 μM Dextromethorphan prepared from stocks as detailed below).
The positive control inhibitor, quinidine, was used at a final concentration of 0.5 μM when used at a single concentration. The final concentrations of quinidine used to derive an IC50 were 0, 0.1, 0.3, 1, 3, 10 and 30 μM. Plates were warmed at 37° C. for 15 min before starting reactions with 20 μl 10 mM NADPH solution in PBS and incubated for 20 min at 37° C. The assay is performed in duplicate. Reactions were quenched with 200 μl cold acetonitrile containing internal standards (200 nM labetalol, 200 nM alprazolam and 100 nM tolbutamide). The plate was centrifuged at 4000 rpm for 30 minutes, placed on ice for 20 minutes and then centrifuged at 4000 rpm for 30 minutes again to precipitate protein. 100 μL of the supernatant was transferred to a new plate and diluted with 100 μL pure water before being analysed using UPLC/MS/MS. The products of the transformation for dextromethorphan to dextrorphan was monitored by UPLC-MS/MS. The inhibition of CYP2D6 in human liver microsomes was measured as the percentage decrease in the activity of dextrorphan formation compared to non-inhibited controls (=100% activity). The IC50 value was calculated (test compound concentration which produces 50% inhibition) by using Excel Xlfit.

A short description of data set [3]: PBS and FaSSIF solubility. The data set is classed as physicochemical. The note with it: aqueous buffer, kinetic from dmso stock; PBS pH 7.4, 2 hr at 25° C.; read-out: Solubility PBS (pH 7.4). How it is done: Test compounds were prepared as 10 mM stocks in DMSO and 15 μl samples transferred in duplicate into 1.5 mL glass flat bottom vials (BioTech Solutions). Fasted state simulated intestinal fluid (FaSSIF) or PBS (pH 7.4) was added to each vial to final volume of 500 μl. One PTFE encapsulated stir stick (V&P Scientific) was placed in each vial before sealing with PTFE/SIL plugs (BioTech Solutions). Vials were shaken at 1100 rpm for 2 hr at 25° C. Samples were then filtered through MultiScreen Solvinert filter plates (Millipore) via vacuum filtration. Aliquots of filtrate (5 μl) plus 5 μl DMSO were diluted in 490 μl 50% acetonitrile in water containing internal standard. The filtrate was analysed and quantified against a standard of known concentration using LC-MS/MS. Solubility values of the test compound and control compound were calculated as follows: […]

Molecules are shown by their SMILES. Values after ≈ are worked out from the molar mass of the structure shown.

CYP2D6, sequence (P10635 whole entry, canonical isoform): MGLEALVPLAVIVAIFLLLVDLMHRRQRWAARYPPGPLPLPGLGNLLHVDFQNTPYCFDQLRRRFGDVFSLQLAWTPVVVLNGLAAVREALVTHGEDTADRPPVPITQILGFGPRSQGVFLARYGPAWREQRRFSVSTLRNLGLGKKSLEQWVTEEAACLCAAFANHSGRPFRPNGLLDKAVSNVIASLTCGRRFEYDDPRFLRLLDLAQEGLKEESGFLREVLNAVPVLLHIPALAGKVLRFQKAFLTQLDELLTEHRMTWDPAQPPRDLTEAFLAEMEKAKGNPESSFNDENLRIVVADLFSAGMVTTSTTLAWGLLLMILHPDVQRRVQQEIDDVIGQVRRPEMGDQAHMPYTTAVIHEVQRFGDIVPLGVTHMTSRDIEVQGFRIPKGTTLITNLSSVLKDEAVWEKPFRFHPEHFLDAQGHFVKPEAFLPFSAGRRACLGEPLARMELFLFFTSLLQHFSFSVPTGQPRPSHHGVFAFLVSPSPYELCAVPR

Regarding `Cc1c(F)cccc1NC(=O)/C=C/c1ccc2c(c1)NC(=O)C2(C)C` [Example 3, (E)-3-(3,3-dimethyl-2-oxoindolin-6-yl)-N-(3-fluoro-2-methylphenyl)acrylamide], in data set [1], the “mPTP Rat liver pIC50” value is 6.4. Besides, the inhibition at 20 min, 1 µM in data set [2] was -1.87%. In data set [3], the solubility at 2 h worked out at 1.75 µM (≈ 0.592 µg/mL).

As for `Cc1c(F)cccc1NC(=O)/C=C/c1ccc2c(c1)NC(=O)C21CC1` [Example 4, (E)-N-(3-fluoro-2-methylphenyl)-3-(2′-oxospiro[cyclopropane-1,3′-indolin]-6′-yl)acrylamide], the “mPTP Rat liver pIC50” value in data set [1] was 6.5. For the same compound, the inhibition at 20 min, 1 µM in data set [2] is 2.89%. The solubility at 2 h in data set [3] worked out at 0.31 µM (≈ 0.104 µg/mL).

Turning to `Cc1c(Cl)cccc1NC(=O)/C=C/c1ccc2oc(=O)[nH]c2c1` [Example 9, (E)-N-(3-chloro-2-methylphenyl)-3-(2-oxo-2,3-dihydrobenzo[d]oxazol-5-yl)acrylamide], the “mPTP Rat liver pIC50” value in data set [1] was 7.4. Moreover, in data set [2], the inhibition at 20 min, 1 µM is -2.59%. Besides, the solubility at 2 h in data set [3] came out at 0.6 µM (≈ 0.197 µg/mL).

On to `CC(C)c1ccccc1NC(=O)/C=C/c1ccc2oc(=O)[nH]c2c1` [Example 13, (E)-N-(2-isopropylphenyl)-3-(2-oxo-2,3-dihydrobenzo[d]oxazol-5-yl)acrylamide], for which, in data set [1], the “mPTP Rat liver pIC50” value came to 6.0. The inhibition at 20 min, 1 µM in data set [2] turned out to be 3.84%. Moreover, in data set [3], the solubility at 2 h was determined as 5.3 µM (≈ 1.71 µg/mL).

`Cc1cccc(C(C)C)c1NC(=O)/C=C/c1ccc2oc(=O)[nH]c2c1` [Example 14, (E)-N-(2-isopropyl-6-methylphenyl)-3-(2-oxo-2,3-dihydrobenzo[d]oxazol-5-yl)acrylamide]: the “mPTP Rat liver pIC50” value in data set [1] was found to be 6.5. Besides, the inhibition at 20 min, 1 µM in data set [2] was -0.52%. In data set [3], the solubility at 2 h is 16 µM (≈ 5.38 µg/mL).

Consider `CC(C)c1ccc(Cl)cc1NC(=O)/C=C/c1ccc2oc(=O)[nH]c2c1` [Example 15, (E)-N-(5-chloro-2-isopropylphenyl)-3-(2-oxo-2,3-dihydrobenzo[d]oxazol-5-yl)acrylamide], for which, in data set [1], the “mPTP Rat liver pIC50” value worked out at 6.9. The inhibition at 20 min, 1 µM in data set [2] was -0.28%. Also, the solubility at 2 h in data set [3] was found to be 0.03 µM (≈ 0.0107 µg/mL).

With `Cc1ccc(F)cc1NC(=O)/C=C/c1ccc2oc(=O)[nH]c2c1` [Example 17, (E)-N-(5-fluoro-2-methylphenyl)-3-(2-oxo-2,3-dihydrobenzo[d]oxazol-5-yl)acrylamide], the inhibition at 20 min, 1 µM in data set [2] came to 1.91%. Besides, the solubility at 2 h in data set [3] was found to be 0.15 µM (≈ 0.0468 µg/mL).

In the case of `Cc1n[nH]c2cc(/C=C/C(=O)NC3c4ccccc4CC3C)ccc12` (stereo not drawn) [Example 38, (E)-3-(3-methyl-1H-indazol-6-yl)-N-(2-methyl-2,3-dihydro-1H-inden-1-yl)acrylamide], in data set [1], the “mPTP Rat liver pIC50” value amounted to 7.2. Also, in data set [2], the inhibition at 20 min, 1 µM came out at 7.3%.

For `Cc1n[nH]c2cc(/C=C/C(=O)Nc3cccc4cnn(C)c34)ccc12` [Example 39, (E)-3-(3-methyl-1H-indazol-6-yl)-N-(1-methyl-1H-indazol-7-yl)acrylamide], in data set [1], the “mPTP Rat liver pIC50” value stood at 7.5. In data set [2], the inhibition at 20 min, 1 µM turned out to be 3.83%.

For `Cc1n[nH]c2cc(/C=C/C(=O)NC3CCc4cc(F)ccc43)ccc12` (stereo not drawn) [Example 40, (E)-N-(5-fluoro-2,3-dihydro-1H-inden-1-yl)-3-(3-methyl-1H-indazol-6-yl)acrylamide], the “mPTP Rat liver pIC50” value in data set [1] was determined as 6.6. Also, in data set [2], the inhibition at 20 min, 1 µM came to 6.65%.

Take `Cc1cc(NC(=O)/C=C/c2ccc3c(C)n[nH]c3c2)ccc1F` [Example 41, (E)-N-(4-fluoro-3-methylphenyl)-3-(3-methyl-1H-indazol-6-yl)acrylamide]: the “mPTP Rat liver pIC50” value in data set [1] came out at 7.1. Also, the inhibition at 20 min, 1 µM in data set [2] was determined as 1.2%.

Turning to `Cc1ccc(NC(=O)/C=C/c2ccc3c(C)n[nH]c3c2)cc1F` [Example 42, (E)-N-(3-fluoro-4-methylphenyl)-3-(3-methyl-1H-indazol-6-yl)acrylamide], in data set [1], the “mPTP Rat liver pIC50” value amounted to 6.1. The inhibition at 20 min, 1 µM in data set [2] is -1.97%.

Turning to `CC1Cc2ccccc2C1NC(=O)/C=C/c1ccc2c(C#N)n[nH]c2c1` (stereo not drawn) [Example 44, (E)-3-(3-cyano-1H-indazol-6-yl)-N-(2-methyl-2,3-dihydro-1H-inden-1-yl)acrylamide], the “mPTP Rat liver pIC50” value in data set [1] worked out at 7.1. Further, the inhibition at 20 min, 1 µM in data set [2] came to 8.94%.

In the case of `Cc1c(Cl)cccc1N(C)C(=O)/C=C/c1ccc2oc(=O)[nH]c2c1` [Example 48, (E)-N-(3-chloro-2-methylphenyl)-N-methyl-3-(2-oxo-2,3-dihydrobenzo[d]oxazol-5-yl)acrylamide], the “mPTP Rat liver pIC50” value in data set [1] worked out at 5.9. In data set [2], the inhibition at 20 min, 1 µM was 6.34%.

Turning to `CC1CCCC1NC(=O)/C=C/c1ccc2oc(=O)[nH]c2c1` (stereo not drawn) [Example 49, (E)-N-(2-methylcyclopentyl)-3-(2-oxo-2,3-dihydrobenzo[d]oxazol-5-yl)acrylamide], in data set [1], the “mPTP Rat liver pIC50” value is 5.8. For the same compound, the inhibition at 20 min, 1 µM in data set [2] was determined as 4.52%.

For orientation: inhibition means the change of the read-out against control, counted positive when it falls. The solubility is the concentration that dissolves in the medium under given conditions.

The record behind these values is patent US20250179028A1, “ACRYLAMIDE COMPOUNDS” (NRG THERAPEUTICS LTD, priority 2022, published 2025).
